Source: patent US4137227A, “1-Alkyl-1,4-dihydro-4-oxo-7-triazenyl-3-quinolinecarboxylic acids” (Sterling Drug Inc., priority 1977, dated 1979)
Converted amounts (≈) assume the structure as drawn. Read-outs that look alike come from different tables or passages of the source.

What was measured:
[1] = cited from earlier work
P-388 tumor = conditions: cited from earlier work; for life-span of mice bearing i.p. implanted P-388 tumor: control animals 10 days
L-1210 leukemia = conditions: 30 to 40 mg/kg dosage; cited from earlier work
S. aureus (Smith) = test: Autotiter in vitro antibacterial test, S. aureus (Smith); assay type: cell-based; conditions: Staphylococcus aureus, 18-20 hours at 37° C., read-out: minimal inhibitory concentration (MIC)
Description: (§1) The antibacterial activity of the compounds of formula I was determined using a modification of the Autotiter® method described by Goss et al. [Applied Microbiology 16 (9), 1414-1416 (1968)] in which a 1,000 mcg./ml. solution of the test compound is prepared. To the first cup of the Autotray® is added 0.1 ml. of the test solution. Activation of the Autotiter initiates a sequence of operations by which 0.05 ml. of the test compound solution is withdrawn from the cup by a Microtiter® transfer loop and diluted in 0.05 ml. of sterile water. Following this operation, 0.05 ml. of inoculated double-strength semisynthetic medium (glucose) is added automatically to each cup. The overall operation results in final drug concentrations ranging from 500 to 0.06 mcg./ml. in twofold decrements. The Autotray is incubated for 18-20 hours at 37° C. at which time the trays are examined visually for growth as evidenced by turbidity, and the concentration of the last sample in the series showing no growth (or no turbidity) is recorded as the minimal inhibitory concentration (MIC) in mcg./ml. The compounds were thus tested as solutions and found active in the range of 7.8 to 125 mcg./ml. (MIC) against one or more of various gram positive and gram negative bacteria including Staphylococcus aureus, Proteus mirabilis, Escherichia coli, Klebsiella pneumoniae and Streptococcus pyogenes.

E. coli (Vogel) = test: Autotiter in vitro antibacterial test, E. coli (Vogel); assay type: cell-based; conditions: Escherichia coli, 18-20 hours at 37° C., read-out: minimal inhibitory concentration (MIC)
Description: as §1

Kleb. pneumoniae = test: Autotiter in vitro antibacterial test, Kleb. pneumoniae; assay type: cell-based; conditions: Klebsiella pneumoniae, 18-20 hours at 37° C., read-out: minimal inhibitory concentration (MIC)
Description: as §1

Strep. pyogens = test: Autotiter in vitro antibacterial test, Strep. pyogens; assay type: cell-based; conditions: Streptococcus pyogenes, 18-20 hours at 37° C., read-out: minimal inhibitory concentration (MIC)
Description: as §1

Prot. mirabilis = test: Autotiter in vitro antibacterial test, Prot. mirabilis; assay type: cell-based; conditions: Proteus mirabilis, 18-20 hours at 37° C., read-out: minimal inhibitory concentration (MIC)
Description: as §1

E. coli (1100/B22) = test: Autotiter in vitro antibacterial test, E. coli (1100/B22); assay type: cell-based; conditions: Escherichia coli, 18-20 hours at 37° C., read-out: minimal inhibitory concentration (MIC)
Description: as §1

Structure (SMILES) | activity against P-388 tumor (in words) (P-388 tumor; up to 40 mg/kg) | MIC (S. aureus (Smith)) [µg/mL] | MIC (E. coli (Vogel)) [µg/mL] | MIC (Kleb. pneumoniae) [µg/mL] | MIC (Strep. pyogens) [µg/mL] | MIC (Prot. mirabilis) [µg/mL] | other results
CN(C)N=Nc1cnc2ccccc2c1 [3,3-dimethyl-1-(3'-quinolinyl)triazene] | – | – | – | – | – | – | stability of crude product on drying ([1]; allowed to dry while crude): decomposes in a puff of smoke; stability of crude product ([1]; crude product): Crude product is very unstable; stability during microanalysis ([1]; during microanalysis): Explodes during microanalysis; stability of purified material on storage ([1]; purified material, on storage): darkens rapidly, but less dramatically, on storage
CN(C)N=Nc1ccnc2ccc(Br)cc12 [Example 6-bromo] | inactive | – | – | – | – | – | activity against mouse L-1210 leukemia (in words) (L-1210 leukemia): active; increase of life-span, mouse L-1210 leukemia (L-1210 leukemia): 50%
CN(C)N=Nc1ccnc2ccc(Cl)cc12 [Example 6-chloro, 6-chloro-4-(3,3-dimethyl-1-triazeno)quinoline] | – | – | – | – | – | – | activity against P-388 tumor (in words) (P-388 tumor; i.p. dosage of 30 mg/kg): active; life-span of mice bearing i.p. implanted P-388 tumor (P-388 tumor; i.p. dosage of 30 mg/kg): 16 to 18 days
CN(C)N=Nc1ccnc2ccc(I)cc12 [Example 6-iodo] | inactive | – | – | – | – | – | –
CN(C)N=Nc1ccnc2cc(Br)ccc12 [Example 7-bromo] | inactive | – | – | – | – | – | –
CN(C)N=Nc1ccnc2cc(Cl)ccc12 [Example 7-chloro, 7-chloro-4-(3,3-dimethyl-1-triazeno)quinoline] | – | – | – | – | – | – | activity against P-388 tumor (in words) (P-388 tumor; i.p. dosage of 30 mg/kg): active; life-span of mice bearing i.p. implanted P-388 tumor (P-388 tumor; i.p. dosage of 30 mg/kg): 16 to 18 days
CN(C)N=Nc1ccnc2c(Br)cccc12 [Example 8-bromo] | inactive | – | – | – | – | – | activity against mouse L-1210 leukemia (in words) (L-1210 leukemia): active; increase of life-span, mouse L-1210 leukemia (L-1210 leukemia): 65%
CN(C)N=Nc1ccnc2c(Cl)cccc12 [Example 8-chloro, 8-chloro-4-(3,3-dimethyl-1-triazeno)quinoline] | – | – | – | – | – | – | activity against P-388 tumor (in words) (P-388 tumor; i.p. dosage of 30 mg/kg): active; life-span of mice bearing i.p. implanted P-388 tumor (P-388 tumor; i.p. dosage of 30 mg/kg): 16 to 18 days; activity against mouse L-1210 leukemia (in words) (L-1210 leukemia): active; increase of life-span, mouse L-1210 leukemia (L-1210 leukemia): 65%
CCn1cc(C(=O)O)c(=O)c2ccc(N=NN(C)C)cc21 [Example E-1, 1-Ethyl-1,4-dihydro-7-(3,3-dimethyl-1-triazenyl)-4-oxo-3-quinolinecarboxylic Acid] | – | 15.6 (≈ 54.1 µM) | 7.8 (≈ 27.1 µM) | 500 (≈ 1730 µM) | 125 (≈ 434 µM) | – | –
CN(C)N=Nc1ccc2c(=O)c(C(=O)O)cn(C)c2c1 [Example E-2, 1,4-Dihydro-1-methyl-7-(3,3-dimethyl-1-triazenyl)-4-oxo-3-quinolinecarboxylic Acid] | – | 62.5 (≈ 228 µM) | 125 (≈ 456 µM) | > 125 | 62.5 (≈ 228 µM) | > 125 | MIC (E. coli (1100/B22)): > 250 µg/mL
CCCn1cc(C(=O)O)c(=O)c2ccc(N=NN(C)C)cc21 [Example E-3, 1,4-Dihydro-7-(3,3-dimethyl-1-triazenyl)-4-oxo-1-n-propyl-3-quinolinecarboxylic Acid] | – | > 62.5 | > 62.5 | > 125 | 31.3 (≈ 104 µM) | > 125 | MIC (E. coli (1100/B22)): > 62.5 µg/mL
CCCn1cc(C(=O)O)c(=O)c2ccc(N=NN(CC)CC)cc21 [Example E-4, 7-(3,3Diethyl-1-triazenyl)-1,4-dihydro-4-oxo-1-n-propyl-3-quinolinecarboxylic Acid] | – | 62.5 (≈ 189 µM) | > 500 | > 500 | 62.5 (≈ 189 µM) | > 500 | MIC (E. coli (1100/B22)): > 500 µg/mL
CCn1cc(C(=O)O)c(=O)c2ccc(N=NN3CCN(C)CC3)cc21 [Example E-5, 1-Ethyl-1,4-dihydro-7-[(4-methyl-1-piperazinyl)azo]-4-oxo-3-quinolinecarboxylic Acid] | – | 31.3 (≈ 91.2 µM) | 15.6 (≈ 45.4 µM) | 62.5 (≈ 182 µM) | 125 (≈ 364 µM) | 125 (≈ 364 µM) | –
